{
  "source": "patent US20150023904A1",
  "about": "“NEW APPLICATION OF PVP-I” (priority 2013, published 2015)",
  "tested_on": "patients suffering premature ejaculation",
  "experiment": "IELT before and after treatment in patients suffering premature ejaculation (Groups a, b, c)",
  "assay_type": "in vivo, human",
  "description": "31 patients (27±5 years old) suffering premature ejaculation for 0.5 to 2 years who have abandoned other therapies for at least 1 month before participating in this experiment. With normal sexual desire, and without drug abuse experience, suspected drug use, or contact with radioactive materials, all these patients are composed of 10 with circumcision, 1 with renal insufficiency, 2 with unsatisfactory sexual life after marriage, and 1 with weak erection.\nTaking intravaginal ejaculatin latency time (IELT) as the experimental parameter, if the time after insertion into the vagina is less than 1 minute, deem it as 1 minute. Take IELT for 3 times before and after the treatment, then calculate the mean value.\nThe experiment was performed by observation of three groups: a, b and c, wherein,\nIELT shall be calculated after 1 month of drug taking respectively.\nAll the data were analyzed statistically with statistical software SPSS 18.0, and for single variables, t was inspected by taking the inspection standard α=0.05, with the inspection results as below: codes a, b and c represent different groups, the data following denote treatment time, 1 signifies IELT before treatment, 2 represents IELT after treatment and N as the number of patients.",
  "data": [
    {"smiles": "CN[C@H]1CC[C@@H](c2ccc(Cl)c(Cl)c2)c2ccccc21", "note": "[sertraline]", "values": [
      {"measurement": "number of patients with prolonged IELT after treatment", "setting": "Group a N=4, Group b N=13, Group c N=14, from scatter plots FIG. 2-4", "value": 4},
      {"measurement": "IELT after treatment, mean value", "setting": "after treatment, IELT taken 3 times and averaged, calculated after 1 month of drug taking, IELT less than 1 minute deemed 1 minute", "value": 3.75, "unit": "min"},
      {"measurement": "IELT before treatment, mean value", "setting": "before treatment (baseline of the same group), IELT taken 3 times and averaged", "value": 1.25, "unit": "min"},
      {"measurement": "patients with side effects or adverse reaction", "setting": "lethargy, dysphoria, bruxism and nausea, disappeared 2 to 3 days after drug withdrawal", "value": 5}
    ]}
  ]
}
